Experimental findings from ChEMBL document CHEMBL4706534, “1,2,3-Triazole-containing hybrids with potential antibacterial activity against methicillin-resistant Staphylococcus aureus (MRSA)” (Eur J Med Chem, 2020) are described below.

The test system of data set [1] is Staphylococcus aureus. Kind of data set: Bactericidal activity against methicillin-resistant Staphylococcus aureus ATCC 33591 measured after 20 hrs. Format: functional.
In data set [2] the test system is Staphylococcus aureus. Kind of data set: Antibacterial activity against Methicillin-resistant Staphylococcus aureus ATCC 33591 incubated for 20 hrs by broth two-fold dilution method. Format: functional.
The subject of data set [3] is Staphylococcus aureus. The data set can be described thus: Antibacterial activity against methicillin-resistant Staphylococcus aureus ATCC 43300 incubated for 18 hrs. It is filed as functional.
Data set [4] has as its system Staphylococcus aureus. The data set can be described thus: Resistance index, ratio of MIC for antibacterial activity against Staphylococcus aureus ATCC 43300 incubated for 18 hrs to MIC for antibacterial activity against Staphylococcus aureus ATCC 25923 incubated for 18 hrs. Format: functional.
Data set [5] concerns Staphylococcus aureus. Kind of data set: Antibacterial activity against Methicillin-resistant Staphylococcus aureus ATCC 510019 incubated for 18 to 24 hrs by CLSI-based microbroth dilution method. It is filed as functional. The conditions noted are these: time 18-24 hrs. On the technique in general: Dilution methods test growth across graded concentrations, often in twofold steps.

In data set [6] the test system is Staphylococcus aureus. The data set can be described thus: Antibacterial activity against Methicillin-resistant Staphylococcus aureus ATCC 51345 incubated for 18 to 24 hrs by CLSI-based microbroth dilution method. It is filed as functional. To be noted: time 18-24 hrs.
For data set [7], the system named is Staphylococcus aureus. Kind of data set: Antibacterial activity against Methicillin-resistant Staphylococcus aureus ATCC 43300 incubated for 18 to 24 hrs by CLSI-based microbroth dilution method. Format: functional. The conditions noted are these: time 18-24 hrs.
For data set [8], the system named is Staphylococcus aureus. Kind of data set: Antibacterial activity against Methicillin-resistant Staphylococcus aureus ATCC 405055 incubated for 18 to 24 hrs by CLSI-based microbroth dilution method. It is filed as functional. The conditions noted are these: time 18-24 hrs.
For data set [9], the system named is Staphylococcus aureus. The data set can be described thus: Antibacterial activity against Methicillin-resistant Staphylococcus aureus ATCC 51033 incubated for 18 to 24 hrs by CLSI-based microbroth dilution method. Format: functional. The conditions noted are these: time 18-24 hrs.
Data set [10] concerns Staphylococcus aureus. The data set can be described thus: Antibacterial activity against Methicillin-resistant Staphylococcus aureus ATCC 52056 incubated for 18 to 24 hrs by CLSI-based microbroth dilution method. The conditions noted are these: time 18-24 hrs. Format: functional.
Data set [11] deals with Staphylococcus aureus. Kind of data set: Antibacterial activity against Methicillin-resistant Staphylococcus aureus ATCC 52351-2 incubated for 18 to 24 hrs by CLSI-based microbroth dilution method. The conditions noted are these: time 18-24 hrs. It is filed as functional.
For data set [12], the system named is Staphylococcus aureus. Kind of data set: Antibacterial activity against Methicillin-resistant Staphylococcus aureus ATCC 60202 incubated for 18 to 24 hrs by CLSI-based microbroth dilution method. Format: functional. The conditions noted are these: time 18-24 hrs.
The test system of data set [13] is Staphylococcus aureus. Kind of data set: Antibacterial activity against Methicillin-resistant Staphylococcus aureus ATCC 51599-2 incubated for 18 to 24 hrs by CLSI-based microbroth dilution method. The conditions noted are these: time 18-24 hrs. It is filed as functional.
Data set [14] relates to Staphylococcus aureus. The data set can be described thus: Antibacterial activity against methicillin-susceptible Staphylococcus aureus ATCC 25923 incubated for 18 hrs. Format: functional.
For data set [15], the system named is Staphylococcus aureus. Kind of data set: Potency index, ratio of linezolid MIC to compound MIC for antibacterial activity against methicillin-resistant Staphylococcus aureus ATCC 33591. It is filed as functional.
The subject of data set [16] is Staphylococcus aureus. The data set can be described thus: Antibacterial activity against methicillin-resistant Staphylococcus aureus ATCC 33591 incubated for 18 hrs. It is filed as functional.
Data set [17] deals with Staphylococcus epidermidis. The data set can be described thus: Antibacterial activity against methicillin-sensitive Staphylococcus epidermidis. Format: functional.
The subject of the next data set is Providencia rettgeri. Kind of data set: Antibacterial activity against Providencia rettgeri. Format: functional.
In the next data set the test system is Escherichia coli. The data set can be described thus: Antibacterial activity against Escherichia coli. Format: functional.
Another data set concerns Enterococcus faecium. Kind of data set: Antibacterial activity against Enterococcus faecium. It is filed as functional.
Another data set deals with Klebsiella pneumoniae. The data set can be described thus: Antibacterial activity against Klebsiella pneumoniae. Format: functional.
For another data set, the system named is Enterococcus faecalis. The data set can be described thus: Antibacterial activity against Enterococcus faecalis. It is filed as functional.
The subject of a further data set is Proteus vulgaris. Kind of data set: Antibacterial activity against Proteus vulgaris. Format: functional.
Another data set has as its system Enterobacter cloacae. Kind of data set: Antibacterial activity against Enterobacter cloacae. Format: functional.
Data set [18] relates to Staphylococcus aureus. Kind of data set: Antibacterial activity against methicillin-sensitive Staphylococcus aureus. Format: functional.
Data set [19] is described as follows: Cytotoxicity against CHO cells. Format: cell-based, Cricetulus griseus. The conditions noted are these: chinese hamster.
The test system of data set [20] is Staphylococcus aureus. Kind of data set: Antibacterial activity against methicillin-resistant Staphylococcus aureus. Format: functional.
The next data set has as its system Klebsiella aerogenes. The data set can be described thus: Antibacterial activity against Enterobacter aerogenes. Format: functional.
Data set [21] concerns Enterococcus. Kind of data set: Antibacterial activity against Vancomycin-resistant enterococcus 2 incubated for 16 hrs by agar dilution method. It is filed as functional.
In data set [22] the test system is Staphylococcus aureus. Kind of data set: Antibacterial activity against Methicillin-resistant Staphylococcus aureus 1 incubated for 16 hrs by agar dilution method. Format: functional.
For data set [23], the system named is Enterococcus. Kind of data set: Antibacterial activity against Vancomycin-resistant enterococcus 1 incubated for 16 hrs by agar dilution method. Format: functional.
Data set [24] deals with Staphylococcus aureus. Kind of data set: Antibacterial activity against Methicillin-resistant Staphylococcus aureus 2 incubated for 16 hrs by agar dilution method. It is filed as functional. In general terms: In agar dilution the substance is mixed into plates at graded concentrations.

The term MBC denotes the smallest concentration meeting the test's criterion for killing. Read a high MBC as less potent killing. As a reminder, the MIC is the least concentration at which growth counts as inhibited. Read a high MIC as a less susceptible organism. In general, CC50 refers to the concentration that lowers cell viability or growth by half.

Converted amounts (≈) assume the structure as drawn.

For the compound `COc1cc(/C=C/c2ccc(OCc3cn(-c4ccc(C(=O)O)cc4)nn3)cc2)cc(OC)c1`, in the data set with Staphylococcus aureus [1], the MBC stood at 19.5 µg/mL (≈ 42.6 µM). For the same compound, the MIC against Staphylococcus aureus [2] turned out to be 1.2 µg/mL (≈ 2.62 µM).
`NC[C@H]1O[C@@H](O[C@@H](Cn2cc(CCCCCCCCCCOc3ccc(C(=O)c4ccccc4)cc3)nn2)[C@H]2O[C@@H](n3ccc(=O)[nH]c3=O)[C@H](O)[C@@H]2O)[C@H](O)[C@@H]1O.O=C(O)C(F)(F)F` returned an MIC against Staphylococcus aureus [3] of 8 µg/mL. The Ratio in the data set on Staphylococcus aureus [4] stood at 1.
Turning to `Cc1nc(C)c(COc2ccc(N3C[C@H](Cn4ccnn4)OC3=O)cc2F)nc1C`, the MIC in the data set on Staphylococcus aureus [5], in the data set with Staphylococcus aureus [6], against Staphylococcus aureus [7], against Staphylococcus aureus [8], with Staphylococcus aureus [9] and in the data set with Staphylococcus aureus [10] was 4 µg/mL (≈ 9.7 µM) in each case. The MIC against Staphylococcus aureus [11], in the data set on Staphylococcus aureus [12] and in the data set with Staphylococcus aureus [13] was 4 µg/mL (≈ 9.7 µM) each time.
`CC(=O)NC[C@H]1CN(c2ccc(-n3cc(-c4ccccn4)nn3)c(F)c2)C(=O)O1`: the MIC against Staphylococcus aureus [14] came to 2 µg/mL (≈ 5.05 µM); with Staphylococcus aureus [16] it was 0.5 µg/mL (≈ 1.26 µM). In addition, the Ratio in the data set with Staphylococcus aureus [15] is 4.
In the case of `CO/N=C1\C(=O)N(Cc2cn(CC(=O)N3CCC[C@H]4CN(c5c(F)cc6c(=O)c(C(=O)O)cn(C7CC7)c6c5OC)C[C@H]43)nn2)c2ccc(C)cc21`, the MIC (in [17]; in the data set with Providencia rettgeri; with Escherichia coli; in the data set with Enterococcus faecium; against Klebsiella pneumoniae; in the data set with Enterococcus faecalis) was ≤ 0.03 µg/mL throughout. Moreover, the MIC was ≤ 0.03 µg/mL in the data set on Proteus vulgaris; ≤ 0.03 µg/mL in the data set with Enterobacter cloacae; ≤ 0.03 µg/mL in the data set on Staphylococcus aureus [18]; 1 µg/mL (≈ 1.4 µM) in the data set on Staphylococcus aureus [20]; ≤ 0.03 µg/mL against Klebsiella aerogenes. In addition, the CC50 in data set [19] stood at 32 µg/mL (≈ 44.9 µM).
For `NC[C@H]1O[C@@H](O[C@@H](Cc2cn(CCCCCCCCCCOc3ccc(C(=O)c4ccccc4)cc3)nn2)[C@H]2O[C@@H](n3ccc(=O)[nH]c3=O)[C@H](O)[C@@H]2O)[C@H](O)[C@@H]1O.O=C(O)C(F)(F)F`, in the data set with Staphylococcus aureus [3], the MIC was determined as 8 µg/mL. The Ratio with Staphylococcus aureus [4] was 0.5.
The compound `COc1cc(/C=C/c2ccc(O)cc2)cc(OC)c1` [PTEROSTILBENE] registered a minimal bactericidal concentration (MBC) against Staphylococcus aureus [1] of 41 µg/mL (≈ 160 µM). In the data set with Staphylococcus aureus [2], this compound registered an MIC of 41 µg/mL (≈ 160 µM).
Regarding `CC(C)C[C@H](C(=O)N[C@@H]1Cc2ccc(c(Cl)c2)Oc2cc3cc(c2O[C@@H]2O[C@H](CO)[C@@H](O)[C@H](O)[C@H]2O[C@H]2C[C@](C)(NCCCCCCCc4ccccc4)[C@H](O)[C@H](C)O2)Oc2ccc(cc2Cl)[C@@H](O)[C@@H]2NC(=O)[C@H](NC(=O)[C@@H]3NC(=O)[C@H](CC(=O)O)NC1=O)c1ccc(O)c(c1)-c1c(O)cc(O)cc1[C@H](C(=O)O)NC2=O)n1cc(COCCCCCCOCc2cn([C@H](CC(C)C)C(=O)N[C@@H]3Cc4ccc(c(Cl)c4)Oc4cc5cc(c4O[C@@H]4O[C@H](CO)[C@@H](O)[C@H](O)[C@H]4O[C@H]4C[C@](C)(NCCCCCCCc6ccccc6)[C@H](O)[C@H](C)O4)Oc4ccc(cc4Cl)[C@@H](O)[C@@H]4NC(=O)[C@H](NC(=O)[C@@H]5NC(=O)[C@H](CC(=O)O)NC3=O)c3ccc(O)c(c3)-c3c(O)cc(O)cc3[C@H](C(=O)O)NC4=O)nn2)nn1`, the MIC was determined as 12.5 µg/mL (≈ 3.64 µM) in the data set with Enterococcus [21], 12.5 µg/mL (≈ 3.64 µM) against Staphylococcus aureus [22], 25 µg/mL (≈ 7.28 µM) against Enterococcus [23] and 12.5 µg/mL (≈ 3.64 µM) against Staphylococcus aureus [24].
Turning to `CC(=O)NC[C@H]1CN(c2ccc(-n3cc(-c4ncccn4)nn3)c(F)c2)C(=O)O1`, the MIC against Staphylococcus aureus [14] was 2 µg/mL (≈ 5.03 µM); in the data set with Staphylococcus aureus [16], 0.5 µg/mL (≈ 1.26 µM). Also, the Ratio with Staphylococcus aureus [15] is given as 4.
